Row | SMILES | melting point [°C]
1 | O=C(Nc1nnco1)C(c1ccccc1)c1ccccc1 | 131 to 132
2 | Cc1c2cccccc-2c(-c2ccccc2)c1-c1ccc(S(C)(=O)=O)cc1 | 165 to 167
3 | COc1ccc(C(=NO)c2c(F)cccc2F)c(Cl)c1Cl | 180 to 186
4 | Cc1ccc(S(=O)(=O)N2CC2CBr)cc1 (stereo not drawn) | 75 to 78
5 | Cc1cnc(-c2ccc(-c3ccccc3S(=O)(=O)Nc3onc(C)c3C)cc2)o1 | 90 to 100
6 | NC(=O)c1ccc(N2CCNCC2)cc1 | 240 to 243
7 | CC(Nc1ccc(Cl)c(Cl)c1)C(=O)NCC#N (stereo not drawn) | 134 to 135
8 | COCc1nc2nccnc2c(=O)n1C | 130 to 132
9 | Cc1ccc(Nc2nc(Cl)nc(Cl)n2)cc1F | 130
10 | Cc1cc(NC(=O)NNc2cccc(C#N)c2)ccc1N1CCCCC1=O | 206 to 207
11 | O=c1nc(-c2cccc(CSCc3ccccc3)n2)sc2ccccc12 | 126 to 128
12 | O=C(COc1cc(-c2ccc(Cl)cc2)nc2ccccc12)N1CCSCC1 | 117
13 | COc1ccc2cc3c(c(-c4ccc(C(F)(F)F)cc4)c2c1)CNC3=O | 219 to 221
14 | COc1cc(C(=CN(C)C)C(C)=O)ccc1OCC(O)CN1CCN(c2ccccc2C)CC1 (stereo not drawn) | 95
15 | CCOC(=O)C1CCCC1NC(=O)C=C(C)OC (stereo not drawn) | 74
16 | COCC(=O)Nc1nc2c(C)cccc2s1 | 110 to 111
17 | CCc1cc(OCCCN(C)Cc2ccc(OC)c(OC)c2)ccc1NC(=O)c1cccc2c(=O)c3cccc(F)c3[nH]c12 | 146
18 | CCOC(=O)Nc1ncc(-c2nc3ccccc3c(=O)n2-c2cccc(OC)c2)s1 | 235 to 236
19 | Cc1c(Br)cccc1NCc1cc(C(C)(C)C)sc1C(=O)O | 150 to 152
20 | CC(C)(C)OC(=O)N1Cc2ccc(COc3cccc4c3CN(C3CCC(=O)NC3=O)C4=O)cc2C1 (stereo not drawn) | 178 to 180
21 | COc1ccc(NC(C)(C)C(=O)O)c([N+](=O)[O-])c1 | 119 to 121
22 | CC(=O)NCC1=C(n2ccccc2=O)c2cc(C(F)(F)F)ccc2OC1(C)C | 174

Row | SMILES | melting point [°C]
23 | NC(=O)N(O)C1C=C(c2cccc(Oc3ccccc3)c2)CC1 (single isomer, unassigned; (+)) | 139 to 141
24 | Cn1cc(-c2ccc(Oc3ccc(F)cc3F)cc2)nc1C(N)=O | 183 to 187
25 | CCS(=O)(=O)Nc1cccc(C(=C(C)C)c2c[nH]cn2)c1 | 152 to 155
26 | COc1cccc2c(CCOCc3ccc(-c4ccccc4)cc3)coc12 | 77 to 78
27 | N#Cc1cccnc1CC1COc2cc3c(cc2O1)OCC31C(=O)Cc2ccccc21 (stereo not drawn) | 230 to 233
28 | N=C(N)Nc1nc(C(=O)NCC(=O)NC(CC(=O)O)c2cccnc2)cs1 (racemic) | 186
29 | O=C(Cc1cccc(Cl)c1)c1ccn(S(=O)(=O)c2ccccc2)c1 | 106 to 108
30 | COCc1ccn2nc(S(=O)(=O)Nc3c(C)cccc3Cl)nc2n1 | 196
31 | COC(=O)CCCc1cc2nc(Cl)ccc2n1S(=O)(=O)c1cccc(Cl)c1 | 107
32 | CC(=O)SCC12CCC3(CC1=CCC1C2CCC2(C)C(C(C)=O)CCC12)OCCO3 (stereo not drawn) | 151 to 153
33 | COc1cc2c(C3=CCNCC3)c[nH]c2cc1Cl | 222 to 224
34 | COC(=O)c1cc(Br)c(O)c(Br)n1 | 148 to 150
35 | CCc1cccc(C(C#N)c2nc(OC)cc(OC)n2)c1[N+](=O)[O-] (stereo not drawn) | 113 to 114
36 | CC(C)(C)c1cc(C(=O)Oc2ccc(Cl)c(N)c2)cc(C(C)(C)C)c1O | 64 to 66
37 | Cc1ccc2c(c1)C(=O)N(C)Cc1c(C(N)=NO)ncn1-2 | 227 to 229
38 | CCCCC1(CCCC)NC(c2nc(-c3ccccc3)cs2)Cc2c1[nH]c1ccccc21 (stereo not drawn) | 134 to 136
39 | CC1(C)OC(=O)N(Cc2ccccc2[N+](=O)[O-])C1O (stereo not drawn) | 119 to 120
40 | Cc1cccc(C)c1C(=O)Nc1cccc2c1CCN(C)C2 | 200 to 201
41 | CCOC(=O)Nc1ccccc1C(=O)OCC | < 40
42 | CNC(=S)C1(c2cccnc2)CCCCS1=O (stereo not drawn) | 228
43 | O=C1OCc2cc(CO)ccc21 | 126
44 | Cc1ccc(-c2oc(C(F)(F)F)nc2-c2ccccc2)cc1S(N)(=O)=O | 156 to 157

Results, then the compound that gave them:

Row | melting point [°C] | SMILES
45 | 194 to 195 | Cc1c(NC(=O)CC(C)(C)C)c(C)c2c(c1C(=O)O)OCC2c1ccc(C(C)C)cc1 (stereo not drawn)
46 | 118 to 120 | O=C(Nc1ccc(Oc2ccnc(NC3CC3)n2)c2ccccc12)c1cc(F)cc(N2CCOCC2)c1
47 | 110 to 115 | COc1ncccc1-c1[nH]c2ccccc2c1C1CCNCC1
48 | 169 to 171 | CSc1nn2c(N3CCN(C)CC3)nc(C)nc2c1S(=O)(=O)c1ccccc1
49 | 190 to 191 | O=C(CC(NC(=O)COCc1ccccc1)c1ccccc1)Nc1n[nH]c(=S)s1 (stereo not drawn)
50 | 133 to 134 | CC(Oc1ccc(Oc2ccc(C#N)cc2)cc1)C(=O)Nc1ccccc1 (stereo not drawn)
51 | 192 | CC1(C)CCC(C)(C)c2cc(-c3cc(-c4ccc(C(=O)O)cc4)ccc3OCCCNC3CC3)ccc21
52 | 110 to 112 | CSC(C)(C)C(=O)N[C@@H](CS)C(=O)O
53 | 204 to 205 | Cn1nnc(-c2ccc3c(c2)S(=O)(=O)c2ccccc2C3=O)n1
54 | 142 to 144 | Brc1ccc(C2CC(n3ccnc3)c3ccccc3N2)cc1 (stereo not drawn)
55 | 75 | C=CCOc1ccc(C[C@@H](NC(C)=O)C(=O)O)cc1
56 | 109 to 110 | COC(=O)CC(=O)c1cnccn1
57 | 89 to 90 | CCOc1ccc2c(c1)c(CC(C)NC(=O)OC(C)(C)C)c1n2CCC1 (stereo not drawn)
58 | 116 to 120 | Cc1nc2cc(NCC(=O)C3(C)CC3)ccc2s1
59 | 252 to 253 | CCCC(=O)c1cnc2c(OC)cccc2c1Nc1ccc(O)cc1C
60 | 122 to 123 | CCC(=CC(CNC(=O)c1cnccc1C(N)=O)=NO)C(C)[N+](=O)[O-] (stereo not drawn)
61 | 195 to 197 | CC(C)S(=O)(=O)c1ccccc1Nc1nc(Nc2ccc3c(c2)C(C)(C)CCC(=O)N3C)ncc1Cl
62 | 180 to 182 | CNc1cc(Oc2ccc3c(c2)OCCN3C(=O)Nc2ccc(C)c(C(F)(F)F)c2)ncn1
63 | 212 to 214 | N#CCc1cc(-c2ccc(Cl)cc2)n(-c2ccc(S(N)(=O)=O)cc2)n1
64 | 125 | COCCc1nc2cnc3cc(Br)cnc3c2n1CC(C)(C)O
65 | 214 to 215 | CCc1ccc(Cl)c(S(=O)(=O)NC(=O)c2cn3cc(C(F)(F)F)cc(Cl)c3n2)c1
66 | 113 to 114 | CCCCCC(CC(=O)Nc1cc(CCC(N)=O)ccc1C(C)(C)C)c1ccc(OC)cc1OC (stereo not drawn)
67 | 194 to 196 | COc1cccc(-n2c3c(c(=O)c4cccnc42)CCO3)c1
68 | 104 to 106 | c1ccc2c(c1)N=C(C1CCCCC1)c1cccc3c1N2CC3
69 | 227 | Cc1c(C(=O)Nc2ccc(N3CCN(C4CCOCC4)CC3)c(C#N)c2)cnn1-c1ccccc1
70 | 178 to 180 | Cc1nnnn1-c1ncccc1C(=O)O
71 | 155 to 156 | Cc1ccc(C(=O)Nc2ccc(-n3nc(C(F)(F)F)cc3C(F)(F)F)cc2)c(Cl)n1

Row | melting point [°C] | SMILES
72 | 158 to 160 | CN(C)c1ccc(Cn2cnc3c(-c4ccco4)ncnc32)cc1
73 | 173 to 175 | CCOc1cc2ncc(C#N)c(Nc3cccc(Br)c3)c2cc1OCC
74 | 130 to 132 | Cc1ccc(CNC(=O)c2cc(Cl)cc3cc(C)oc23)cc1
75 | 103 | CN(CCCCCNC(=NCCSCc1csc(NC(=N)N)n1)NC#N)CCN(Cc1ccc(F)cc1)c1ccccn1
76 | 228 | CCOc1ccc2c(c1)n(C1CCCCC1)c(=O)n2S(=O)(=O)c1ccc(C(=O)NC23CC4CC(CC(C4)C2)C3)cc1OC
77 | 203 | O=C(c1ccc(F)cc1)C1CCN(CCN2CNc3ccccc3C2=O)CC1
78 | 148 to 149 | CC(C)CNC(=NC#N)Nc1cccnc1
79 | 147 | CC(C)C(=O)Oc1ccc2c(c1Cl)Sc1ccccc1N2C
80 | 147 | Cc1cc(C)cc(-c2cnn3c(-c4cccc(C#N)c4)ccnc23)c1
81 | > 250 | Cc1c[nH]c2c([N+](=O)[O-])ccc(Cl)c2c1=O
82 | > 300 | COc1cc(NS(C)(=O)=O)ccc1-c1nc2cc3c(cc2[nH]1)NC(=O)C3(C)C
83 | 181 to 184 | CCOC(=O)c1[nH]c(CC)nc1C(C)(C)O
84 | 114 to 115 | CCOC(=O)c1ccc(-c2ccc(OC)c(Br)c2)cc1
85 | 208 to 210 | Cc1c(-c2cc(Nc3cc4n(n3)CCN(C)C4)c(=O)n(COP(=O)(OCCC#N)OCCC#N)n2)cccc1N1Cc2cc(C(C)(C)C)sc2C1=O
86 | 149 to 151 | COC(=O)c1c(Cl)cc(Cl)cc1NC(=O)CSc1ccc(O)cc1
87 | 200 | COc1ccc(C(=O)c2[nH]c(=S)[nH]c2C)cc1
88 | 210 | O=C(Oc1ccccc1OC(=O)c1cc(O)c(O)c(O)c1)c1cc(O)c(O)c(O)c1
89 | 137 to 138 | CCN(CC)CCSCC(=O)c1ccc2[nH]c3ncc(Cl)cc3c2c1
90 | 130 to 131 | CCOC(=O)C(C(=O)OC(c1ccccc1)c1ccccc1)C(=O)c1cc(F)c(OC)nc1Nc1ccc(F)cc1F (stereo not drawn)
91 | 146 to 147 | CCCCc1nc2ccc(C(C)O)cc2c(=O)n1Cc1ccc(-c2ccccc2-c2nnn[nH]2)cc1 (stereo not drawn)
92 | 158 to 160 | COc1ccc(/C(=C\C=C\C2CC2)C(=O)O)cc1
93 | 195 to 197 | CC(C)(O)c1ccc(CNC(=O)c2cccnc2Oc2ccc3ncsc3c2)cc1
94 | 173 to 174 | CC(C)Oc1ccc(C(=O)O)c(Cl)n1
95 | 220 | Cc1ccc(S(=O)(=O)NC(=O)NCCc2ccc(-n3c(C(C)O)nc4cc(C(F)(F)F)c(Cl)cc43)cc2)cc1 (stereo not drawn)
96 | 135 to 137 | CCOC(=O)c1ccc(NC=O)c(C(=O)CCNC(=O)OC(C)(C)C)c1
97 | 116 to 118 | NC(N)=NC(=O)Cc1c(-c2ccccc2)csc1-c1ccc(Oc2ccccc2)cc1
98 | 144 to 145 | COc1ccc(C2Sc3c(ccc4ccccc34)N(CCN(C)C)C(=O)C2OC(=O)c2cccnc2)cc1 (stereo not drawn)

— a melting point compilation (Tetko et al.; mined from patent text by program, amines drawn as free bases though some values may be those of a salt)
